Activity calls are given as the source filed them. The calls are words filed in the database; no cut-off is given here.
How the values were obtained:
[1] = Prodrug conversion in African green monkey assessed as Nucleotide triphosphate metabolite formation in lung at 20 mg/kg, iv measured upto 24 hrs by LC-MS/MS analysis; assay type: ADME, organism-based; conditions: chlorocebus aethiops, in vivo
[2] = Prodrug conversion in cynomolgus monkey assessed as Nucleotide triphosphate metabolite formation in lung at 20 mg/kg, iv measured upto 24 hrs by LC-MS/MS analysis; assay type: ADME, organism-based, Macaca fascicularis; conditions: in vivo
[3] = Stability of compound in rat gastrointestinal S9 fraction assessed as half life at pH 7.4 measured upto 120 mins by LC-MS/MS analysis; assay type: ADME, subcellular, Gastrointestinal tract
[4] = Oral bioavailability in cynomolgus monkey assessed as prodrug conversion by measuring (2R,3R,4S,5R)-2-(4-aminopyrrolo[2,1-f][1,2,4]triazin-7-yl)-3,4-dihydroxy-5-(hydroxymethyl)tetrahydrofuran-2-carbonitrile at 11.7 mg/kg measured upto 24 hrs by LC-MS/MS analysis; assay type: ADME, organism-based, Macaca fascicularis; conditions: in vivo
[5] = Aqueous stability of the compound assessed as compound remaining at pH 7 measured at 24 hrs by UPLC analysis; assay type: physicochemical; conditions: aqueous solution, read-out: Stability
[6] = Oral bioavailability in dog assessed as prodrug conversion by measuring (2R,3R,4S,5R)-2-(4-aminopyrrolo[2,1-f][1,2,4]triazin-7-yl)-3,4-dihydroxy-5-(hydroxymethyl)tetrahydrofuran-2-carbonitrile at […] measured upto 24 hrs by LC-MS/MS analysis; assay type: ADME, organism-based, Canis lupus familiaris; conditions: in vivo
[7] = AUC(0 to 24 hrs) in African green monkey assessed as prodrug conversion by measuring (2R,3R,4S,5R)-2-(4-aminopyrrolo[2,1-f][1,2,4]triazin-7-yl)-3,4-dihydroxy-5-(hydroxymethyl)tetrahydrofuran-2-carbonitrile at 60 mg/kg, po measured upto 24 hrs by LC-MS/MS analysis; assay type: ADME, organism-based; parameters: time < 24 hrs, dose 60 mg/kg, route po; conditions: chlorocebus sabaeus, in vivo
[8] = system: SARS-CoV-2; assay: Antiviral activity against SARS-CoV-2 infected in African green monkey assessed as reduction in viral genomic RNA load in throat swabs at 60 to 120 mg/kg, po qd administered for 1 day starting from 8 hrs post infection by RT-qPCR analysis; assay type: functional, organism-based; conditions: Severe acute respiratory syndrome coronavirus 2, dose lower 60.0 mg/kg, dose upper […]
[9] = Stability of compound in cynomolgus monkey liver S9 fraction assessed as half life at pH 7.4 measured upto 90 mins by LC-MS/MS analysis; assay type: ADME, subcellular, Macaca fascicularis
[10] = Stability of compound in dog plasma assessed as half life measured upto 4 hrs by LC-MS/MS analysis; assay type: ADME, cell-free, Canis lupus familiaris
[11] = Oral bioavailability in rat assessed as prodrug conversion by measuring (2R,3R,4S,5R)-2-(4-aminopyrrolo[2,1-f][1,2,4]triazin-7-yl)-3,4-dihydroxy-5-(hydroxymethyl)tetrahydrofuran-2-carbonitrile at 6 mg/kg administered in solid form measured upto 24 hrs by LC-MS/MS analysis; assay type: ADME, organism-based; conditions: in vivo
[12] = Half life in dog assessed as prodrug conversion by measuring (2R,3R,4S,5R)-2-(4-aminopyrrolo[2,1-f][1,2,4]triazin-7-yl)-3,4-dihydroxy-5-(hydroxymethyl)tetrahydrofuran-2-carbonitrile at […], po measured upto 24 hrs by LC-MS/MS analysis; assay type: ADME, organism-based, Canis lupus familiaris; conditions: in vivo
[13] = Half life in African green monkey assessed as prodrug conversion by measuring (2R,3R,4S,5R)-2-(4-aminopyrrolo[2,1-f][1,2,4]triazin-7-yl)-3,4-dihydroxy-5-(hydroxymethyl)tetrahydrofuran-2-carbonitrile at […], po measured upto 24 hrs by LC-MS/MS analysis; assay type: ADME, organism-based; conditions: chlorocebus sabaeus, in vivo
[14] = AUC(0 to 24 hrs) in African green monkey at […], po measured upto 24 hrs by LC-MS/MS analysis; assay type: ADME, organism-based; conditions: chlorocebus sabaeus, in vivo
[15] = Aqueous stability of the compound assessed as compound remaining at pH 2 measured at 24 hrs by UPLC analysis; assay type: physicochemical; conditions: aqueous solution, read-out: Stability
[16] = system: SARS-CoV-2; assay: Antiviral activity against SARS-CoV-2 infected in African green monkey assessed as reduction in viral genomic RNA load in throat swabs at 60 to 120 mg/kg, po qd administered for 2 days starting from 8 hrs post infection by RT-qPCR analysis; assay type: functional, organism-based; conditions: Severe acute respiratory syndrome coronavirus 2, dose lower 60.0 mg/kg, dose upper […], time 2.0 day
[17] = Half life in African green monkey assessed as prodrug conversion by measuring (2R,3R,4S,5R)-2-(4-aminopyrrolo[2,1-f][1,2,4]triazin-7-yl)-3,4-dihydroxy-5-(hydroxymethyl)tetrahydrofuran-2-carbonitrile at 60 mg/kg, po measured upto 24 hrs by LC-MS/MS analysis; assay type: ADME, organism-based; conditions: chlorocebus sabaeus, in vivo
[18] = AUC(0 to 24 hrs) in dog assessed as prodrug conversion by measuring (2R,3R,4S,5R)-2-(4-aminopyrrolo[2,1-f][1,2,4]triazin-7-yl)-3,4-dihydroxy-5-(hydroxymethyl)tetrahydrofuran-2-carbonitrile at […], po measured upto 24 hrs by LC-MS/MS analysis; assay type: ADME, organism-based, Canis lupus familiaris; conditions: in vivo
[19] = Stability of compound in cynomolgus monkey gastrointestinal S9 fraction assessed as half life at pH 7.4 measured upto 120 mins by LC-MS/MS analysis; assay type: ADME, subcellular, Macaca fascicularis, Gastrointestinal tract
[20] = Half life in African green monkey assessed as prodrug conversion by measuring (2R,3R,4S,5R)-2-(4-aminopyrrolo[2,1-f][1,2,4]triazin-7-yl)-3,4-dihydroxy-5-(hydroxymethyl)tetrahydrofuran-2-carbonitrile at 86.5 mg/kg, po measured upto 24 hrs by LC-MS/MS analysis; assay type: ADME, organism-based; conditions: chlorocebus sabaeus, in vivo
[21] = AUC(0 to 24 hrs) in African green monkey assessed as prodrug conversion by measuring (2R,3R,4S,5R)-2-(4-aminopyrrolo[2,1-f][1,2,4]triazin-7-yl)-3,4-dihydroxy-5-(hydroxymethyl)tetrahydrofuran-2-carbonitrile at […], po measured upto 24 hrs by LC-MS/MS analysis; assay type: ADME, organism-based; conditions: chlorocebus sabaeus, in vivo
[22] = Cmax in rat assessed as prodrug conversion by measuring (2R,3R,4S,5R)-2-(4-aminopyrrolo[2,1-f][1,2,4]triazin-7-yl)-3,4-dihydroxy-5-(hydroxymethyl)tetrahydrofuran-2-carbonitrile at 6 mg/kg, po measured upto 24 hrs by LC-MS/MS analysis; assay type: ADME, organism-based; parameters: dose 6 mg/kg, time < 24 hrs, route po; conditions: in vivo
[23] = Oral bioavailability in African green monkey assessed as prodrug conversion by measuring (2R,3R,4S,5R)-2-(4-aminopyrrolo[2,1-f][1,2,4]triazin-7-yl)-3,4-dihydroxy-5-(hydroxymethyl)tetrahydrofuran-2-carbonitrile at 60 mg/kg measured upto 24 hrs by LC-MS/MS analysis; assay type: ADME, organism-based; conditions: chlorocebus sabaeus, in vivo
[24] = AUC(0 to 24 hrs) in African green monkey assessed as prodrug conversion by measuring (2R,3R,4S,5R)-2-(4-aminopyrrolo[2,1-f][1,2,4]triazin-7-yl)-3,4-dihydroxy-5-(hydroxymethyl)tetrahydrofuran-2-carbonitrile at 86.5 mg/kg, po measured upto 24 hrs by LC-MS/MS analysis; assay type: ADME, organism-based; parameters: dose 86.5 mg/kg, time < 24 hrs, route po; conditions: chlorocebus sabaeus, in vivo
[25] = system: SARS-CoV-2; assay: Antiviral activity against SARS-CoV-2 infected in African green monkey assessed as reduction in viral genomic RNA load in terminal respiratory tissue at 60 to 120 mg/kg, po qd administered for 6 days starting from 8 hrs post infection by RT-qPCR analysis; assay type: functional, organism-based; conditions: Severe acute respiratory syndrome coronavirus 2, dose lower 60.0 mg/kg, dose upper […], time 6.0 day
[26] = Stability of compound in dog liver S9 fraction assessed as half life at pH 7.4 measured upto 90 mins by LC-MS/MS analysis; assay type: ADME, subcellular, Canis lupus familiaris

Which Drug metabolism [1] does the source give for N#C[C@@]1(c2ccc3c(N)ncnn23)O[C@H](CO)[C@@H](O)[C@H]1O [GS-441524] here?
Its Drug metabolism is 0.23 nmol/g.

And the Drug metabolism [2]?
Its Drug metabolism is 0.41 nmol/g.

With CC(C)C(=O)OC[C@H]1O[C@@](C#N)(c2ccc3c(N)ncnn23)[C@H](O)[C@@H]1O [OBELDESIVIR] as the molecule, how does the half-life [3] read?
Its half-life is > 2 min.

And the F [4]?
Its F is 37%.

And the remaining at 24 h [5]?
Its remaining at 24 h is ≥ 96%.

And the F [6]?
Its F is 93%.

What about the AUC [7] of the same molecule?
The AUC was 129 µM·h.

What about the Activity [8] of the same molecule?
Its Activity is “Active”.

And the half-life at […] [9]?
The half-life at […] was < 2 min.

And the half-life [10]?
The half-life was 6.87 h.

What about the F [11] of the same molecule?
The F was 90%.

What about the t1/2 [12] of the same molecule?
The t1/2 was 3.62 h.

And the t1/2 [13]?
The t1/2 was 3.19 h.

What about the AUC [14] of the same molecule?
Its AUC is 0.02 µM·h.

What about the remaining at 24 h [15] of the same molecule?
Its remaining at 24 h is ≥ 94%.

What about the Activity [16] of the same molecule?
The Activity was “Active”.

What about the t1/2 [17] of the same molecule?
Its t1/2 is 2.9 h.

What about the AUC [18] of the same molecule?
Its AUC is 202 µM·h.

What about the half-life [19] of the same molecule?
Its half-life is < 2 min.

And the t1/2 [20]?
Its t1/2 is 2.98 h.

What about the AUC [21] of the same molecule?
The AUC was 26.6 µM·h.

What about the Cmax [22] of the same molecule?
Its Cmax is 2100 nM.

What about the F [23] of the same molecule?
Its F is 36%.

And the AUC [24]?
The AUC was 136 µM·h.

What about the Activity [25] of the same molecule?
The Activity was “Active”.

And the half-life at […] [26]?
The half-life at […] was 4.3 min.
